Molecules are shown by their SMILES.

The first test has as its system HEK-Blue IL23 Reporter. Put plainly: HEK-Blue IL-23 STAT3 Reporter Assay. Conditions: HEK-Blue IL23 cells stimulated with IL-23 overnight; SEAP read with QUANTI-Blue at OD655. Format: cell-based, human. On the procedure: HEK-Blue IL23 cells (InvivoGen catalog #HKB-IL23) are designed for the detection of bioactive IL-23 by monitoring the activation of the STAT3 pathway. They were generated by stably introducing the genes for the human IL-23 receptor, STAT3, and the SEAP (secreted embryonic alkaline phosphatase) reporter gene into human HEK293 cell line.
Briefly, around 50,000 cells in DMEM medium supplemented with 10% heat inactivated FBS (˜180 ul) were seeded into each well and incubate for 48 hours at 37° C. with 5% CO2 in air. On day 3, one microliter of compound and 20 ul IL-23 were transferred to the assay plate respectively. The plate was left in the 37° C. incubator overnight. Two microliter of cell supernatant was transferred to a 384-well plate, and 18 ul of resuspended QUANTI-Blue solution was added to each well. SLAP levels were determined using Tecan Spark at OD655.
Cells with no IL23 added were used as Low control. Cells stimulated with IL23 were used as High control. Inhibition rate was calculated with the formula of % inhibition=100*(High control−Treated Well)/(High Control−Low control). IL-23 reporter assay inhibition IC50 was calculated with the equation of Y=Bottom+(Top-Bottom)/(1+10^((Log IC50−X)*HillSlope)).
(Reporter assays use an easily measured gene product as a stand-in for the process of interest.)
As for `[2H]C([2H])([2H])NC(=O)c1nnc(NC(=O)C2CC2)cc1Nc1nccc2c1S(C)(=O)=NC2` (stereo not drawn) [Compound 56], 0.3 nM corresponded to half-maximal inhibition (IC50).

In the case of `[2H]C([2H])([2H])NC(=O)c1nnc(NC(=O)C2CC2)cc1Nc1nccc2c1S(C)(=O)=NC2` (stereo not drawn) [Compound 57], it took 51.7 nM to reach half-maximal inhibition (IC50).

With `[2H]C([2H])([2H])NC(=O)c1nnc(NC(=O)C2CCCC2)cc1Nc1nccc2c1S(C)(=O)=NC2` (stereo not drawn) [Compound 90], half-maximal inhibition (IC50) was put at 4.2 nM.

Regarding `[2H]C([2H])([2H])NC(=O)c1nnc(NC(=O)C2CCCC2)cc1Nc1nccc2c1S(C)(=O)=NC2` (stereo not drawn) [Compound 91], the IC50 (usually the concentration at which inhibition is half-maximal) was no less than 1000 nM.

Molecule `[2H]C([2H])([2H])NC(=O)c1nnc(NC(=O)N2CCCC2)cc1Nc1nccc2c1S(C)(=O)=NC2` (stereo not drawn) [Compound 92] returned a half-inhibitory concentration (IC50) of no less than 1000 nM.

`[2H]C([2H])([2H])NC(=O)c1nnc(NC(=O)N2CCCC2)cc1Nc1nccc2c1S(C)(=O)=NC2` (stereo not drawn) [Compound 93] came in with an IC50 of 13.6 nM.

Turning to `[2H]C([2H])([2H])NC(=O)c1nnc(NC(=O)[C@H]2CC23CC3)cc1Nc1ncccc1S1(=O)=NCCC1` (stereo partly drawn) [Compound 95], the half-inhibitory concentration (IC50) came out at 19.5 nM.

`[2H]C([2H])([2H])NC(=O)c1nnc(NC(=O)[C@H]2CC23CC3)cc1Nc1ncccc1S(C)(=O)=NC` (stereo partly drawn) [Compound 98] gave a concentration for half-maximal inhibition (IC50) of 188 nM.

The same test, now with this note: Homo sapiens, HEK-Blue IL-23, HEK-Blue IL23 cells stimulated with IL-23 overnight; SEAP read with QUANTI-Blue at OD655.
As for `[2H]C([2H])([2H])NC(=O)c1nnc(NC(=O)[C@H]2[C@@H]3COC[C@@H]32)cc1Nc1ncc(OC)cc1S(C)(=O)=O` [Compound 37], inhibition was half-maximal at 10.2 nM (IC50).

Take `[2H]C([2H])([2H])NC(=O)c1nnc(NC(=O)[C@H]2[C@@H]3COC[C@@H]32)cc1Nc1ncccc1S(C)(=O)=O` [Compound 38]: it took 15.3 nM to reach half-maximal inhibition (IC50).

The molecule `[2H]C([2H])([2H])NC(=O)c1nnc(NC(=O)[C@H]2CC23CC3)cc1Nc1nc2c(cc1S(C)(=O)=O)CN(C(=O)OCc1ccccc1)CC2` [Compound 39] returned a half-inhibitory concentration (IC50) of 3.2 nM.

`[2H]C([2H])([2H])NC(=O)c1nnc(NC(=O)[C@H]2CC23CC3)cc1Nc1nc2c(cc1S(C)(=O)=O)CNCC2` [Compound 40]: the IC50 was determined as 54.4 nM.

As to `[2H]C([2H])([2H])NC(=O)c1nnc(NC(=O)[C@H]2CC23CC3)cc1Nc1nc2c(cc1S(C)(=O)=O)CN(C)CC2` [Compound 41], half-maximal inhibition (IC50) was put at 12.7 nM.

`[2H]C([2H])([2H])NC(=O)c1nnc(NC(=O)[C@H]2CC23CC3)cc1Nc1ncc(OCC)cc1S(C)(=O)=O` [Compound 42] came in with an IC50 of 0.58 nM.

Molecule `[2H]C([2H])([2H])NC(=O)c1nnc(NC(=O)[C@H]2CC23CC3)cc1Nc1ncc(OC(C)C)cc1S(C)(=O)=O` [Compound 43] came in with an IC50 of 0.34 nM.

Molecule `[2H]C([2H])([2H])NC(=O)c1nnc(NC(=O)[C@H]2CC23CC3)cc1Nc1ncc(CC)cc1S(C)(=O)=O` [Compound 44] yielded a concentration for half-maximal inhibition (IC50) of 1 nM.

In turn, `[2H]C([2H])([2H])NC(=O)c1nnc(NC(=O)C2CC2)cc1Nc1ncc(F)cc1S(C)(=O)=O` [Compound 45] came in with an IC50 of 1.5 nM.

The molecule `[2H]C([2H])([2H])NC(=O)c1nnc(NC(=O)C2CC2)cc1Nc1ncc(C2CC2)cc1S(C)(=O)=O` [Compound 46] registered an IC50 of 0.2 nM.

For the molecule `[2H]C([2H])([2H])NC(=O)c1nnc(NC(=O)C2CC2)cc1Nc1ncc(C(F)(F)F)cc1S(C)(=O)=O` [Compound 47], the IC50 came out at 1.4 nM.

`[2H]C([2H])([2H])NC(=O)c1nnc(NC(=O)C2CC2)cc1Nc1ncc(C)cc1S(C)(=O)=O` [Compound 48] yielded an IC50 of 0.46 nM.

`[2H]C([2H])([2H])NC(=O)c1nnc(C(F)F)cc1Nc1ncccc1S(C)(=O)=O` [Compound 49] had an IC50 greater than 1000 nM.

`[2H]C([2H])([2H])NC(=O)c1nnc(Nc2cnc(C(C)(C)O)nc2)cc1Nc1ncc(OC)cc1S(C)(=O)=O` [Compound 50] registered an IC50 of 9.3 nM.

Regarding `[2H]C([2H])([2H])NC(=O)c1nnc(NC(=O)NC2CC2)cc1Nc1ncc(OC)cc1S(C)(=O)=O` [Compound 51], 6.2 nM corresponded to half-maximal inhibition (IC50).

Regarding `[2H]C([2H])([2H])NC(=O)c1nnc(NC(=O)C2CC2)cc1Nc1ncc(Cl)cc1S(C)(=O)=O` [Compound 52], the IC50 stood at 2.5 nM.

For the molecule `[2H]C([2H])([2H])NC(=O)c1nnc(NC(=O)C2CC2)cc1Nc1ncc(OCCN(C)C)cc1S(C)(=O)=O` [Compound 61], the midpoint of inhibition, the IC50, lay at 19.9 nM.

With `[2H]C([2H])([2H])NC(=O)c1nnc(NC(=O)C2CC2)cc1Nc1ncc(C2(F)COC2)cc1S(C)(=O)=O` [Compound 62], the half-inhibitory concentration (IC50) is 71.9 nM.

For `[2H]C([2H])([2H])NC(=O)c1nnc(NC(=O)C2CC2)cc1Nc1ncc(OC2COC2)cc1S(C)(=O)=O` [Compound 63], half-maximal inhibition (IC50) was put at 1.9 nM.

The molecule `[2H]C([2H])([2H])NC(=O)c1nnc(NC(=O)C2CC2)cc1Nc1ncc(OC(C)C)cc1S(C)(=O)=O` [Compound 64] had an IC50 of 0.6 nM.

`[2H]C([2H])([2H])NC(=O)c1nnc(NC(=O)C2CC2)cc1Nc1ncc(N2CCOC[C@H]2C)cc1S(C)(=O)=O` [Compound 65] came in with an IC50 of 0.5 nM.

Consider `[2H]C([2H])([2H])NC(=O)c1nnc(NC(=O)C2CC2)cc1Nc1ncc(OCC(C)(C)O)cc1S(C)(=O)=O` [Compound 66], for which half-maximal inhibition (IC50) was put at 5.7 nM.

Turning to `[2H]C([2H])([2H])NC(=O)c1nnc(NC(=O)C2CC2)cc1Nc1ncc(OC[C@H](C)OC)cc1S(C)(=O)=O` [Compound 67], the midpoint of inhibition, the IC50, lay at 1 nM.

Regarding `[2H]C([2H])([2H])NC(=O)c1nnc(NC(=O)C2CC2)cc1Nc1ncc(OC[C@@H](C)OC)cc1S(C)(=O)=O` [Compound 68], the IC50 came out at 0.6 nM.

Take `[2H]C([2H])([2H])NC(=O)c1nnc(NC(=O)C2CC2)cc1Nc1ncc(O[C@@H](C)COC)cc1S(C)(=O)=O` [Compound 69]: the IC50 was determined as 0.2 nM.

Take `[2H]C([2H])([2H])NC(=O)c1nnc(NC(=O)C2CC2)cc1Nc1ncc(O[C@H](C)COC)cc1S(C)(=O)=O` [Compound 70]: the IC50 worked out at 1.3 nM.

In turn, `[2H]C([2H])([2H])NC(=O)c1nnc(NC(=O)C2CC2)cc1Nc1nc(C)sc1S(C)(=O)=O` [Compound 71] showed an IC50 of 5.4 nM.

`[2H]C([2H])([2H])NC(=O)c1nnc(NC(=O)C2CC2)cc1Nc1nc(C)c(F)cc1S(C)(=O)=O` [Compound 72] yielded an IC50 of 1.6 nM.

`[2H]C([2H])([2H])NC(=O)c1nnc(NC(=O)C2CC2)cc1Nc1ncc(OC[C@H](C)OC(F)F)cc1S(C)(=O)=O` [Compound 73]: the IC50 was 1.1 nM.

`[2H]C([2H])([2H])NC(=O)c1nnc(NC(=O)C2CC2)cc1Nc1ncc(OC[C@H](C)OC=O)cc1S(C)(=O)=O` [Compound 74] had a half-inhibitory concentration (IC50) of 2.2 nM.

Turning to `[2H]C([2H])([2H])NC(=O)c1nnc(NC(=O)C2CC2)cc1Nc1ncc(OC[C@@H](C)OC(F)F)cc1S(C)(=O)=O` [Compound 75], the 50% inhibitory concentration (IC50) was 1.6 nM.

Take `[2H]C([2H])([2H])NC(=O)c1nnc(NC(=O)C2CC2)cc1Nc1ncc(OC[C@@H](C)OC=O)cc1S(C)(=O)=O` [Compound 76]: the midpoint of inhibition, the IC50, lay at 2.5 nM.

Regarding `[2H]C([2H])([2H])NC(=O)c1cnc(NC(=O)C2CC2)cc1Nc1ncc(C2CC2)cc1S(C)(=O)=O` [Compound 77], the half-maximal inhibitory concentration (IC50) came to 1.1 nM.

In the case of `[2H]C([2H])([2H])NC(=O)c1nnc(NC(=O)C2CC2)cc1Nc1ncc(OCCOC(F)F)cc1S(C)(=O)=O` [Compound 78], the half-inhibitory concentration (IC50) is 0.8 nM.

Consider `[2H]C([2H])([2H])NC(=O)c1nnc(NC(=O)C2CC2)cc1Nc1ncc(OCCOC=O)cc1S(C)(=O)=O` [Compound 79], for which half-maximal inhibition (IC50) was put at 3.3 nM.

`[2H]C([2H])([2H])NC(=O)c1cnc(NC(=O)C2CC2)cc1Nc1ncc(Cl)cc1S(C)(=O)=O` [Compound 80]: the IC50 came out at 1.5 nM.

Consider `[2H]C([2H])([2H])NC(=O)c1cnc(NC(=O)C2CC2)cc1Nc1ncc(OC(C)C)cc1S(C)(=O)=O` [Compound 81], for which the midpoint of inhibition, the IC50, lay at 0.9 nM.

With `[2H]C([2H])([2H])NC(=O)c1nnc(NC(=O)C2CC2)cc1Nc1ncc(N2CCOC[C@@H]2C)cc1S(C)(=O)=O` [Compound 82], it took 9 nM to reach half-maximal inhibition (IC50).

As to `[2H]C([2H])([2H])NC(=O)c1nnc(NC(=O)C2CC2)cc1Nc1nc(C2CC2)sc1S(C)(=O)=O` [Compound 83], 7.4 nM corresponded to half-maximal inhibition (IC50).

The molecule `[2H]C([2H])([2H])NC(=O)c1nnc(NC(=O)[C@H]2C[C@@H](OC)C2)cc1Nc1ncc(C2CC2)cc1S(C)(=O)=O` [Compound 84] came in with a concentration for half-maximal inhibition (IC50) of 4.1 nM.

Regarding `[2H]C([2H])([2H])NC(=O)c1nnc(NC(=O)[C@H]2C[C@H](OC)C2)cc1Nc1ncc(C2CC2)cc1S(C)(=O)=O` [Compound 85], the IC50 is 2.1 nM.

`[2H]C([2H])([2H])NC(=O)c1nnc(NC(=O)[C@H]2C[C@@H](NC)C2)cc1Nc1ncc(C2CC2)cc1S(C)(=O)=O` [Compound 86] gave an IC50 of 30.8 nM.

In the case of `[2H]C([2H])([2H])NC(=O)c1nnc(NC(=O)[C@H]2C[C@H](NC)C2)cc1Nc1ncc(C2CC2)cc1S(C)(=O)=O` [Compound 87], the IC50 worked out at 19.9 nM.

As for `[2H]C([2H])([2H])NC(=O)c1nnc(NC(=O)NC2CCC2)cc1Nc1ncc(OC)cc1S(C)(=O)=O` [Compound 88], the half-maximal inhibitory concentration (IC50) worked out at 0.6 nM.

The molecule `[2H]C([2H])([2H])NC(=O)c1nnc(NC(=O)N2CCC2)cc1Nc1ncc(OC)cc1S(C)(=O)=O` [Compound 89] returned an IC50 of 7.9 nM.

`[2H]C([2H])([2H])CC(=O)c1nnc(NC(=O)[C@H]2CC23CC3)cc1Nc1ncccc1S(C)(=O)=O` [Compound 96]: the IC50 stood at 189 nM.

These data come from patent US12492184B2, “Heteroaryl compounds, preparation methods and uses thereof” (InventisBio Co., Ltd., priority 2020, dated 2025).
